For five molecules, Vmax, Km and Ratio results are on record in ChEMBL document CHEMBL1146705, “Resistance towards exonucleases of dinucleotides with stereochemically altered internucleotide phosphate bonds” (Bioorg Med Chem Lett, 2004).

Broadly, the Vmax is the rate approached at saturating substrate. By Km is commonly meant the substrate concentration at which the rate is half of its maximum.

Experiment [1] is described as follows: Vmax towards phosphodiesterase 1.
Experiment [2] in a line: Affinity for phosphodiesterase 1.
Experiment [3] is described as follows: Ratio of Vmax to that of Km towards phosphodiesterase II (PDE II).
The nature of experiment [4]: Ratio of Vmax to that of Km towards phosphodiesterase I (PDE I).
Experiment [5] is described as follows: Vmax towards phosphodiesterase I and II; NS = Non-substrate.

Regarding `Nc1ccn(C2C[C@@H](O)[C@@H](COP(=O)(O)O[C@H]3[C@@H](CO)OC[C@@H]3n3cnc4c(N)ncnc43)O2)c(=O)n1` (some centres undefined), the maximal velocity (Vmax) in experiment [1] stood at 19.2 mM/min. In addition, the Km in experiment [2] is 1250 µM. For the same molecule, the Ratio in experiment [3] was 4.5; in experiment [4] it was 15.4.

As to `Nc1ccn([C@H]2C[C@H](O)[C@@H](COP(=O)(O)O[C@H]3[C@H](n4cnc5c(N)ncnc54)CO[C@@H]3COP(=O)(O)O)O2)c(=O)n1`, the Vmax entry in experiment [5] was “Non substrate”.

Consider `Nc1ccn(C2C[C@@H](OP(=O)(O)OC[C@H]3OC[C@H](n4ccc(N)nc4=O)[C@H]3O)[C@@H](COP(=O)(O)O)O2)c(=O)n1` (some centres undefined), for which the Vmax result in experiment [5] is “Non substrate”.

For the molecule `Nc1ccn(C2C[C@@H](O)[C@@H](COP(=O)(O)O[C@@H]3CC(n4cnc5c(N)ncnc54)O[C@@H]3CO)O2)c(=O)n1` (some centres undefined), in experiment [1], the maximum rate (Vmax) stood at 141 mM/min. Further, the Michaelis-Menten constant (Km) in experiment [2] amounted to 2700 µM. Also, the Ratio in experiment [3] was determined as 21.1; in experiment [4], 52.4.

In the case of `Nc1ccn(C2C[C@@H](O)[C@@H](COP(=O)(O)O[C@@H]3CC(n4ccc(N)nc4=O)O[C@@H]3CO)O2)c(=O)n1` (some centres undefined), the Vmax in experiment [1] was 1450 mM/min. In addition, the Michaelis-Menten constant (Km) in experiment [2] is 900 µM. Further, the Ratio came out at 87.8 in experiment [3] and 1610 in experiment [4].
